Results published in patent US20140128409A1, “MEDICAMENTS FOR THE TREATMENT OR PREVENTION OF FIBROTIC DISEASES” (BOEHRINGER INGELHEIM INTERNATIONAL GMBH, priority 2004, published 2014).

Assays:
Format in all cases: in vivo, rat
[1] = test system: procollagen I gene expression; experiment: Expression of fibrotic marker gene procollagen I in lung following bleomycin-induced pulmonary fibrosis (real time PCR); conditions: bleomycin-treated rats, 50 mg/kg daily, day 21, versus bleomycin + vehicle; FIG. 2
Protocol: (§1) All experiments were performed in accordance with German guidelines for animal welfare, performed by persons certified to work with animals and approved by the responsible authorities. Male Wistar rats were intratracheally injected with Bleomycin sulfate (10 U/kg body weight in 300 μl saline) or saline alone (saline control) using a catheter (0.5 mm internal diameter, 1.0 mm external diameter) through the nasal passage, following exposure to the anaesthetic Isofluorane for 5 minutes. The following day, the rats were orally treated with Example A (compound (134)) or saline suspended in 1 ml 0.1% Natrosol. Control rats were administered 1 ml 0.1% Natrosol (vehicle control).
(§2) 21 days following bleomycin instillation, the rats were killed with a lethal intraperitoneal injection of Narcoren™ (Pentobarbital Sodium, Rhone Merieux). The lungs were then removed, blotted dry and half was snap frozen in liquid nitrogen and stored at −80° C. The other half was fixed in 4% formalin for subsequent paraffin embedding and histology.
(§3) (B) Effect of a representative compound on expression of fibrotic marker genes following bleomycin-induced pulmonary fibrosis.
(§4) One part of the frozen lung tissue dedicated to investigation of gene expression was cut into small pieces using a sterile scalpel blade. […] The concentration of each sample was then measured using a spectrophotometer. […]

[2] = test system: fibronectin gene expression; experiment: Expression of fibrotic marker gene fibronectin in lung following bleomycin-induced pulmonary fibrosis (real time PCR); conditions: bleomycin-treated rats, 50 mg/kg daily, day 21, versus bleomycin + vehicle; FIG. 3
Protocol: as §1, §2, §3, §4

[3] = test system: bleomycin-induced pulmonary fibrosis; experiment: Lung morphology following bleomycin-induced pulmonary fibrosis (histology, Masson's Trichrome collagen staining); conditions: male Wistar rats, bleomycin 10 U/kg intratracheally; 50 mg/kg daily orally, days 1-21; histology 21 days after instillation; FIG. 1C
Protocol: (A) Effect of a representative compound on lung morphology following bleomycin-induced pulmonary fibrosis. All experiments were performed in accordance with German guidelines for animal welfare, performed by persons certified to work with animals and approved by the responsible authorities. Male Wistar rats were intratracheally injected with Bleomycin sulfate (10 U/kg body weight in 300 μl saline) or saline alone (saline control) using a catheter (0.5 mm internal diameter, 1.0 mm external diameter) through the nasal passage, following exposure to the anaesthetic Isofluorane for 5 minutes. The following day, the rats were orally treated with Example A (compound (134)) or saline suspended in 1 ml 0.1% Natrosol. Control rats were administered 1 ml 0.1% Natrosol (vehicle control). [table] 21 days following bleomycin instillation, the rats were killed with a lethal intraperitoneal injection of Narcoren™ (Pentobarbital Sodium, Rhone Merieux). The lungs were then removed, blotted dry and half was snap frozen in liquid nitrogen and stored at −80° C. The other half was fixed in 4% formalin for subsequent paraffin embedding and histology. The lung tissues fixed in 4% formalin were embedded into paraffin and 5 μm sections were cut using a microtome (Leica SM200R) and placed on poly-L-lysine coated slides. […] Collagen deposition was assessed using Masson's Trichrome staining.

Compound: CN(C)Cc1ccc(N/C(=C2\C(=O)Nc3cc(F)ccc32)c2ccc(CCC(=O)O)cc2)cc1 [Example A, 3-Z-[1-(4-dimethylaminomethylanilino)-1-(4-(2-carboxyethyl)phenyl)methylene]-6-fluoro-2-indolinone]
- procollagen I gene expression in lung (normalized to 18S) [1]: significant (p≦0.0001) inhibition
- fibronectin gene expression in lung (normalized to 18S) [2]: significant (p≦0.0001) inhibition
- fibroblast infiltration or extracellular matrix deposition in lung [3]: little or no fibroblast infiltration or extracellular matrix deposition has occurred
- lung fibrosis (lung morphology, collagen deposition staining) [3]: consistent, nearly complete reversal of lung fibrosis
